Read-outs that look alike come from different tables or passages of the source.
Legend:
[1] = Swiss, mouse, in vivo
Description: (§1) Mice were then decapitated according to selected time points, with blood samples collected following decapitation. The brain was then removed from the skull. For each mouse, the brain hemispheres and two blood samples were weighed in Econo glass vials for liquid scintillation counting (Perkin Elmer). All samples were treated with a tissue solubilizer (Solvable, Perkin Elmer). Blood samples were in addition decolored with 0.2 mL of 30% hydrogen peroxide solution to avoid color quenching issues. After complete tissue sample digestion (24 h in a water bath at 45°C), the vials were cooled and mixed with Ultima‐gold XR (Perkin Elmer). The radioactivity in each vial, expressed in disintegrations per minute (dpm) for ^3H and ^14C, was counted in a Perkin Elmer Tri‐Carb counter.
For [^3H]rosuvastatin, data collection was performed at 5 and 7 min post i.p. injection. […] This avoids quantification bias caused by the formation of possible radiolabelled metabolites.
First, the vascular volume (V vasc, μL/g) was estimated for each mouse as the brain volume of distribution (V d) of [^14C]sucrose: […]

[2] = BBB integrity: vascular volume (V vasc) of [14C]sucrose after i.p. injection; type: in vivo, Swiss mice; conditions: for Kp at 5 min: Swiss, mouse, brain/blood, ip, 0.31 MBq/kg, 5 min post i.p. injection
Description: as §1
First, the vascular volume (V vasc, μL/g) was estimated for each mouse as the brain volume of distribution (V d) of [^14C]sucrose:
[^14C]sucrose V d was calculated as the ratio of midbrain to blood carbon‐14 associated radioactivity (dpm/g) measured at 5 min post i.p. injection. Vvasc=Vdsucrose=Xsucrose,brain/Csucrose,blood
Where X sucrose,brain (dpm/g), is the calculated amount of [^14C]sucrose from the brain and C sucrose,blood (dpm/μL) its blood concentration. The data for any animal whose V vasc was an aberrant value was excluded from the study.
The vascular volume based [^14C]sucrose calculation was used as the outcome parameter for BBB integrity. Higher levels in V vasc indicate leakage of [^14C]sucrose into the brain parenchyma because of BBB leakage.

Row | decrease of cerebral (brain) transport at P30 compared to P15 [1] [fold] | Kp at 5 min ([2]; mice at P5, brain/blood ratio, read-out: Vv, Mean) | Kp at 5 min ([2]; mice at P5, read-out: Vv, Median) | Kp at 5 min ([2]; mice at P15, brain/blood ratio, read-out: Vv, Mean) | Kp at 5 min ([2]; mice at P15, read-out: Vv, Median) | Kp at 5 min ([2]; mice at P30, brain/blood ratio, read-out: Vv, Mean) | Kp at 5 min ([2]; mice at P30, read-out: Vv, Median) | V vasc, comparison between ages ([2]; mice at P5, P15 and P30) | SMILES
1 | 6.8 | – | – | – | – | – | – | – | CC(C)c1nc(N(C)S(C)(=O)=O)nc(-c2ccc(F)cc2)c1/C=C/[C@@H](O)C[C@@H](O)CC(=O)O [3H-Rosuvastatin, rosuvastatin]
2 | – | 0.0276 | 0.0235 | 0.0272 | 0.0256 | 0.0279 | 0.0292 | did not differ between P5, P15, and P30 | OC[C@H]1O[C@@](CO)(O[C@H]2O[C@H](CO)[C@@H](O)[C@H](O)[C@H]2O)[C@@H](O)[C@@H]1O [14C-Sucrose, sucrose]
